Our source for the IC50 values is US11873295B2, “Allosteric chromenone inhibitors of phosphoinositide 3-kinase (PI3K) for the treatment of disease” (Petra Pharma Corporation, priority 2021, dated 2024).

Assay [1] concerns the target T1, human full length PIK3KA H1047R mutant (p110α/p85α complex) (Homo sapiens, UniProt P42336, H1047R).
T1 construct: Recombinant, catalytically active human full length PIK3KA Wild-type and H1047R mutant were purchased as 1:1 complex; 6xHis (N); purchased EMD Millipore Sigma 14-792M
As to the kind of experiment: PI3K-alpha kinase (PIK3CA) biochemical activity, H1047R mutant, ADP-Glo. The conditions noted are these: PI3K-α (PIK3CA) biochemical, H1047R mutant, Soy PI lipid substrate. The gist of the method:
(§1)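 ADP formation, read by ADP-Glo, is run to about 10% ATP turnover at 27 °C with 20 μM ATP and 50 μM PIP2diC8 or soy PI. WT or H1047R p110α/p85α (1–5 nM) is pre-incubated 1 h with compound in HEPES pH 7.4/MgCl2/Triton buffer, 1% DMSO. 10-point 1:3 series, logistic IC50 versus no-enzyme and DMSO controls.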
(In general: ADP-Glo first removes unused ATP, then detects ADP through luciferase.)

Assay [2] relates to PI3K-α (PIK3CA) in MDA-MB-453 cells. Briefly: PI3K-alpha kinase (PIK3CA) activity in vitro cell based assay, MDA-MB-453 cells, AlphaLisa SureFire. The conditions noted are these: Homo sapiens, MDA-MB-453, 3 h, 0% FBS, 3 hours treatment, relative IC50. The gist of the method:
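MDA-MB-453 cells in serum-free MEM with 1 μg/mL insulin treated 3 h with 10-point 1:3 compound dilutions, 0.3% DMSO. Lysates read by AlphaLisa SureFire; percent inhibition relative to DMSO (max) and 1 μM GDC-0032 (min), duplicate means fitted to 4-parameter logistic for relative IC50.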
A general note: In Alpha technology, singlet oxygen from a donor bead excites a nearby acceptor bead.

In assay [3] the target is T2, human full length PIK3KA Wild-type (p110α/p85α complex) (Homo sapiens, UniProt P42336).
T2 construct: Recombinant, catalytically active human full length PIK3KA Wild-type and H1047R mutant were purchased as 1:1 complex; 6xHis (N); purchased EMD Millipore Sigma 14-602M
As to the kind of experiment: PI3K-alpha kinase (PIK3CA) biochemical activity, wild-type, ADP-Glo. The conditions noted are these: PI3K-α (PIK3CA) biochemical, Soy PI lipid substrate. The gist of the method: as §1

The structures appear in SMILES notation. pIC50: −log10 of the molar value. Where only a bound is given, the exact number is not on record here.

T1 sequence (P42336 whole entry H1047R): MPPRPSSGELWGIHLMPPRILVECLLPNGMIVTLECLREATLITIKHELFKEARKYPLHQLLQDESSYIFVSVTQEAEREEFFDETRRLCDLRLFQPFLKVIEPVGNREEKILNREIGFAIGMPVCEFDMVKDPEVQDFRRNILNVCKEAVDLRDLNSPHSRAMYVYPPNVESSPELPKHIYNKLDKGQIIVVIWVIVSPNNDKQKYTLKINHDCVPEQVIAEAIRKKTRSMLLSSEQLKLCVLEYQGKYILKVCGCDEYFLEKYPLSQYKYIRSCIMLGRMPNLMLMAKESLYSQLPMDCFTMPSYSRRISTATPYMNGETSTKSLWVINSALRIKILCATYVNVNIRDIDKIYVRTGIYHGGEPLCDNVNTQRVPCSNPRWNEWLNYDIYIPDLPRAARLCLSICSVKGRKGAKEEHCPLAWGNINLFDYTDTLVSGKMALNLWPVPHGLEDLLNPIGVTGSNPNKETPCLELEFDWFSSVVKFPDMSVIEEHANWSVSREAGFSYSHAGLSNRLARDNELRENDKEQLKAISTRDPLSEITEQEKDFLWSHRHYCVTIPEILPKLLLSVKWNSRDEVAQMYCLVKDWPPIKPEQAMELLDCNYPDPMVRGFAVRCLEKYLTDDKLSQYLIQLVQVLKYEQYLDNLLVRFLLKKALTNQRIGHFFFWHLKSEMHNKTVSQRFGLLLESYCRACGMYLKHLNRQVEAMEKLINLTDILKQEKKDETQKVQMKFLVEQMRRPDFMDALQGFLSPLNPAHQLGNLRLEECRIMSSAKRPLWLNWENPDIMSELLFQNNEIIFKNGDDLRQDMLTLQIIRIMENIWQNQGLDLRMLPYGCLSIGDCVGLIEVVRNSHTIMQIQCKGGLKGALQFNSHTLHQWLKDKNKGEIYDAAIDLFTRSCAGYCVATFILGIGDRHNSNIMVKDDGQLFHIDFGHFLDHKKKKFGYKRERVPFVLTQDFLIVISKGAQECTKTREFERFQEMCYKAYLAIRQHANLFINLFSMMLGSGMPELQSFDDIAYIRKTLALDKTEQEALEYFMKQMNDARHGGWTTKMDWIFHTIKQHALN
T1 sequence (P27986 whole entry partner): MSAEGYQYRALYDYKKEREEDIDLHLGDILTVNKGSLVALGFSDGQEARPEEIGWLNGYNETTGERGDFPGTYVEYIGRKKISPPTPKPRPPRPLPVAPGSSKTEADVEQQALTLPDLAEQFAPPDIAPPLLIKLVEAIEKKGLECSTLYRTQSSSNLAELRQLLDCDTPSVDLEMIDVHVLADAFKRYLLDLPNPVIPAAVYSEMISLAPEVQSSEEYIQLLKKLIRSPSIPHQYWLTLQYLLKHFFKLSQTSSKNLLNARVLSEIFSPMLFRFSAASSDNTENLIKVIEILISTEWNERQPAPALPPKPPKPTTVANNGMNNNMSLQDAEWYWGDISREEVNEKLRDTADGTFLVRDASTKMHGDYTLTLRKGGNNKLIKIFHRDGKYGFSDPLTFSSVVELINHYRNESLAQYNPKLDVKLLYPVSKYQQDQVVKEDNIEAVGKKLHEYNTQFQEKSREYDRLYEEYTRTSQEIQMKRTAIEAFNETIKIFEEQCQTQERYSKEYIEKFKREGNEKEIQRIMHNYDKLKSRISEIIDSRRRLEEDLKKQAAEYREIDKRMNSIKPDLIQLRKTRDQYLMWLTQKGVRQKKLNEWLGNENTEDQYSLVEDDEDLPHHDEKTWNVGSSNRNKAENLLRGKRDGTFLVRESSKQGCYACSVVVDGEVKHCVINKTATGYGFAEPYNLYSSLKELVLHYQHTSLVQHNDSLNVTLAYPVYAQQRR

A word on the pIC50: it is −log10 of the IC50, conventionally taken in molar units. A lower pIC50 goes with a large IC50. In the case of `Cc1cc([C@@H](C)Nc2ccccc2C(=O)O)c2oc(-c3cc(F)cc(F)c3)cc(=O)c2c1` [Example 68, 2-[[(1R)-1-[2-(3,5-Difluorophenyl)-6-methyl-4-oxo-chromen-8-yl]ethyl]amino]benzoic acid 2,2,2-trifluoroacetic acid], the pIC50 in assay [1] was more than 6.30; in assay [2] it was more than 7.30; in assay [3], 5.30 to 6.00.

For `Cc1cc([C@@H](C)Nc2cccc(F)c2C(=O)O)c2oc(-c3ccccc3)c(C)c(=O)c2c1` [Example 69, 2-[[(1R)-1-(3,6-Dimethyl-4-oxo-2-phenyl-chromen-8-yl)ethyl]amino]-6-fluoro-benzoic acid], the pIC50 in assay [1] is more than 6.30; in assay [2] it was more than 7.30; in assay [3] it was 6.00 to 6.30.

In the case of `Cc1cc([C@@H](C)Nc2ccccc2C(=O)O)c2oc(-c3ccccc3)c(C(F)(F)F)c(=O)c2c1` [Example 70, 2-[[(1R)-1-[6-Methyl-4-oxo-2-phenyl-3-(trifluoromethyl)-chromen-8-yl]ethyl]amino]benzoic acid 2,2,2-trifluoroacetic acid], the pIC50 is more than 6.30 in assay [1], more than 7.30 in assay [2] and 5.30 to 6.00 in assay [3].

Take `Cc1cc([C@@H](C)Nc2ccccc2C(=O)O)c2oc(-c3cccc(C(F)F)c3)c(C)c(=O)c2c1` [Example 73, 2-[[(1R)-1-[2-[3-(Difluoromethyl)phenyl]-3,6-dimethyl-4-oxo-chromen-8-yl]ethyl]amino]benzoic acid 2,2,2-trifluoroacetic acid]: the pIC50 in assay [1] is more than 6.30; in assay [2], more than 7.30; in assay [3], less than 5.00.

Regarding `Cc1cc([C@@H](C)Nc2ccccc2C(=O)O)c2oc(-c3ccc(F)cc3F)c(C)c(=O)c2c1` [Example 75, 2-[[(1R)-1-[2-(2,4-Difluorophenyl)-3,6-dimethyl-4-oxo-chromen-8-yl]ethyl]amino]benzoic acid], the values for the pIC50 in assay [1], in assay [2] and in assay [3] were more than 6.30, more than 7.30 and 5.30 to 6.00, respectively.

Regarding `Cc1cc([C@@H](C)Nc2cccc(Cl)c2C(=O)O)c2oc(-c3ccccc3)c(C)c(=O)c2c1` [Example 76, 2-Chloro-6-[[(1R)-1-(3,6-dimethyl-4-oxo-2-phenyl-chromen-8-yl)ethyl]amino]benzoic acid], the pIC50 in assay [1] is more than 6.30; in assay [2], more than 7.30; in assay [3] it was 5.00 to 5.30.

Take `Cc1cc([C@@H](C)Nc2ccccc2C(=O)O)c2oc(-c3ccc(F)c(F)c3)c(C)c(=O)c2c1` [Example 78, 2-[[(1R)-1-[2-(3,4-Difluorophenyl)-3,6-dimethyl-4-oxo-chromen-8-yl]ethyl]amino]benzoic acid 2,2,2-trifluoroacetic acid]: the results for the pIC50 in assay [1], in assay [2] and in assay [3] were more than 6.30, more than 7.30 and 5.30 to 6.00, respectively.

Consider `C[C@@H](Nc1ccc(Cl)nc1C(=O)O)c1cc(C(F)(F)F)cc2c(=O)cc(-c3ccc(F)cc3F)oc12` [Example 81, 6-Chloro-3-[[(1R)-1-[2-(2,4-difluorophenyl)-4-oxo-6-(trifluoromethyl)-chromen-8-yl]ethyl]amino]pyridine-2-carboxylic acid], for which the pIC50 was more than 6.30 in assay [1], more than 7.30 in assay [2] and 5.30 to 6.00 in assay [3].

With `Cc1c(-c2ccccc2)oc2c([C@@H](C)Nc3ccccc3C(=O)O)cc(F)cc2c1=O` [Example 84, 2-[[(1R)-1-(6-Fluoro-3-methyl-4-oxo-2-phenyl-chromen-8-yl)ethyl]amino]benzoic acid 2,2,2-trifluoroacetic acid], the pIC50 in assay [1] is more than 6.30; in assay [2], less than 6.30; in assay [3] it was 5.00 to 5.30.

In the case of `Cc1cc([C@@H](C)Nc2ccccc2C(=O)O)c2oc(-c3ccccc3)c(-c3cnoc3)c(=O)c2c1` [Example 85, 2-[[(1R)-1-(3-Isoxazol-4-yl-6-methyl-4-oxo-2-phenyl-chromen-8-yl)ethyl]amino]benzoic acid 2,2,2-trifluoroacetic acid], the results for the pIC50 in assay [1], in assay [2] and in assay [3] were more than 6.30, more than 7.30 and 5.30 to 6.00, respectively.

As to `C[C@@H](Nc1ccc(Cl)nc1C(=O)O)c1cc(C(F)(F)F)cc2c(=O)cc(-c3ccc(F)c(F)c3)oc12` [Example 88, 6-Chloro-3-[[(1R)-1-[2-(3,4-difluorophenyl)-4-oxo-6-(trifluoromethyl)-chromen-8-yl]ethyl]amino]pyridine-2-carboxylic acid], the values for the negative-log IC50 (pIC50) in assay [1], in assay [2] and in assay [3] were more than 6.30, more than 7.30 and 5.30 to 6.00, respectively.

Regarding `Cc1c(-c2ccccc2)oc2c([C@@H](C)Nc3ccc(Cl)nc3C(=O)O)cc(C(F)(F)F)cc2c1=O` [Example 91, 6-Chloro-3-[[(1R)-1-[3-methyl-4-oxo-2-phenyl-6-(trifluoromethyl)-chromen-8-yl]ethyl]amino]pyridine-2-carboxylic acid], the results for the pIC50 in assay [1], in assay [2] and in assay [3] were more than 6.30, more than 7.30 and 5.30 to 6.00, respectively.

For the compound `Cc1cc([C@@H](C)Nc2ccccc2C(=O)O)c2oc(-c3cccc(F)c3F)c(C)c(=O)c2c1` [Example 92, 2-[[(1R)-1-[2-(2,3-Difluorophenyl)-3,6-dimethyl-4-oxo-chromen-8-yl]ethyl]amino]benzoic acid 2,2,2-trifluoroacetic acid], the pIC50 in assay [1] was more than 6.30; in assay [2] it was more than 7.30; in assay [3] it was 5.00 to 5.30.

As for `Cc1cc(C(C)Nc2cccnc2C(=O)O)c2oc(-c3ccccc3F)c(C)c(=O)c2c1` (stereo not drawn) [Example 93, 3-[1-[2-(2-Fluorophenyl)-3,6-dimethyl-4-oxo-chromen-8-yl]ethylamino]pyridine-2-carboxylic acid 2,2,2-trifluoroacetic acid], the results for the pIC50 in assay [1], in assay [2] and in assay [3] were 5.30 to 6.00, 6.30 to 7.00 and less than 5.00, respectively.

As to `Cc1cc(C(C)Nc2cccc(F)c2C(=O)O)c2oc(-c3ccccc3F)c(C)c(=O)c2c1` (stereo not drawn) [Example 94, 2-Fluoro-6-[1-[2-(2-fluorophenyl)-3,6-dimethyl-4-oxo-chromen-8-yl]ethylamino]benzoic acid 2,2,2-trifluoroacetic acid], the pIC50 in assay [1] is more than 6.30; in assay [2], more than 7.30; in assay [3], 5.30 to 6.00.

As for `Cc1cc(C(C)Nc2cccc(F)c2C(=O)O)c2oc(-c3cccc(F)c3)c(C)c(=O)c2c1` (stereo not drawn) [Example 95, 2-Fluoro-6-[1-[2-(3-fluorophenyl)-3,6-dimethyl-4-oxo-chromen-8-yl]ethylamino]benzoic acid 2,2,2-trifluoroacetic acid], the pIC50 in assay [1] was more than 6.30; in assay [2], more than 7.30; in assay [3], 5.30 to 6.00.

As for `Cc1c(-c2ccc(F)c(F)c2)oc2c([C@@H](C)Nc3ccc(Cl)nc3C(=O)O)cc(C(F)(F)F)cc2c1=O` [Example 96, 6-Chloro-3-[[(1R)-1-[2-(3,4-difluorophenyl)-3-methyl-4-oxo-6-(trifluoromethyl)-chromen-8-yl]ethyl]amino]pyridine-2-carboxylic acid], the pIC50 in assay [1] was more than 6.30; in assay [2], more than 7.30; in assay [3], 5.30 to 6.00.

As to `Cc1c(-c2ccccc2F)oc2c([C@@H](C)Nc3ccc(Cl)nc3C(=O)O)cc(C(F)(F)F)cc2c1=O` [Example 98, 6-Chloro-3-[[(1R)-1-[2-(2-fluorophenyl)-3-methyl-4-oxo-6-(trifluoromethyl)-chromen-8-yl]ethyl]amino]pyridine-2-carboxylic acid], the pIC50 in assay [1] was more than 6.30; in assay [2], more than 7.30; in assay [3], 5.30 to 6.00.
